Laboratory results as given in patent US8114862B2, “TGR5 modulators and methods of use thereof” (Intercept Pharmaceuticals, Inc., priority 2008, dated 2012).

How the values were obtained:
[1] = target: T1, LXRα (Homo sapiens, UniProt Q13133); assay: LXR coactivator recruitment (alphascreen); type: biochemical
T1 sequence (Q13133 1-447): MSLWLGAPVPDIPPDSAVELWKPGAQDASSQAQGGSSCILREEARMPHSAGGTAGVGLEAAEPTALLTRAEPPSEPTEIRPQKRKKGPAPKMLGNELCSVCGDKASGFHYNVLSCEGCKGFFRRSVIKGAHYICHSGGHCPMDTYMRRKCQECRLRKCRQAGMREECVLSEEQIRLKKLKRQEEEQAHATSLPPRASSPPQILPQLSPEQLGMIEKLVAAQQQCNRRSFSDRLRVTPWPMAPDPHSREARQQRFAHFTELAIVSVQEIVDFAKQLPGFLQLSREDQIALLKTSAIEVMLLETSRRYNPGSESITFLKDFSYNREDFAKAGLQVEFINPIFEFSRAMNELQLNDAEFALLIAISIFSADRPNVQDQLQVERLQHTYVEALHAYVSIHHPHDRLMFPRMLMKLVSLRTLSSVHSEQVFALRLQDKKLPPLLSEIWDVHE

[2] = target: T2, CAR (Homo sapiens, UniProt Q14994); assay: CAR coactivator recruitment (Lanthascreen); type: biochemical; conditions: read-out: CAR Activation EC50
T2 construct: purchased Invitrogen
T2 sequence (Q14994 109-352 limits assumed): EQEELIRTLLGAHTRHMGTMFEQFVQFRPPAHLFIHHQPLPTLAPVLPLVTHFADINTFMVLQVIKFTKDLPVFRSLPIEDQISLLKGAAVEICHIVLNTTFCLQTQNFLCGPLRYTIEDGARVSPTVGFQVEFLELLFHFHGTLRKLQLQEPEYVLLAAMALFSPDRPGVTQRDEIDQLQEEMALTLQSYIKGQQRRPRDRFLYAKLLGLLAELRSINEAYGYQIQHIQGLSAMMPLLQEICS
Experimental: CAR: Coactivator Recruitment (Lanthascreen)
Lanthascreen assay (Invitrogen) was used for nulear receptor selectivity assay. The kit uses a terbium-labeled anti-GST antibody, a fluorescein-labeled coactivator peptide, and a NR ligand-binding domain that is tagged with glutathione-S-transferase (GST) in a homogenous mix-and-read assay format. […] Following 1 hour incubation in the dark, TR-FRET measurements were made in the Envision. […] The data was analyzed using GraphPad Prism using the sigmoidal curve equation with variable slope to obtain EC50 values.

[3] = test system: DIO and db/db mice; assay: Glucose homeostasis and insulin sensitivity in DIO and db/db mice (Example 21); type: in vivo, mouse
Experimental: Animals were housed and bred according to standardized procedures (Argmann and Auwerx, 2006b). Age-matched male mice were used for all experiments. Genetically engineered mouse models (GEMMs), i.e., TGR5-Tg and TGR5^−/− mice, were generated as described in the Supplemental Data. […]; Research Diets) for at least 8 weeks, as mentioned in the text and figure legends. […] Mouse phenotyping experiments were performed according to EMPRESS protocols (see, for example, Empress (European Mouse Phenotyping Resource of Standardised Screening) website) and were aimed to assess food and water intake, body composition (Argmann et al., 2006a, Curr. Protoc. Mol. Biol. Chapter 29, Unit 29A, 23), energy expenditure (Argmann et al., 2006a, Curr. Protoc. Mol. Biol. Chapter 29, Unit 29A, 23), glucose and lipid homeostasis (Argmann et al., 2006b, Curr. Protoc. Mol. Biol. Chapter 29, Unit 29A, 22); Heikkinen et al., 2007, Curr. Protoc. Mol. Chapter. 29, Unit 29B, 23; Mataki et al., 2007, Mol. Cell. Biol. 27, 8330), and plasma biochemistry (Argmann and Auwerx, 2006a, Curr. Protoc. Mol. Biol. Chapter 29, Unit 29A, 22). Tissues and blood were collected and processed for histopathology, blood chemistry, and gene expression according to standardized procedures (Argmann and Auwerx, 2006a; Feige et al., 2008b; Mark et al., 2007; Watanabe et al., 2006). Hyperinsulinemic euglycemic clamp studies were performed as described (Feige et al., 2008b), with minor modifications including a change in the initial insulin bolus (30 mU/kg) and insulin infusion rate (10 mU/min/kg). Plasma GLP-1 levels were measured by ELISA (Millipore) on blood collected by retro-orbital puncture. […].
To further characterize the impact of compound Ih3e on glucose homeostasis and insulin sensitivity, a hyperinsulinemic euglycemic glucose clamp was performed on these DIO mice. […]. These effects correlated with normalization in the expression of key genes involved in hepatic glucose homeostasis (FIG. 21G).

[4] = test system: HF-fed C57BL/6J mice; assay: Dietary intervention in HF-fed C57BL/6J mice (Example 20); type: in vivo, mouse
Experimental: Age-matched male mice were used for all experiments. Genetically engineered mouse models (GEMMs), i.e., TGR5-Tg and TGR5^−/− mice, were generated as described in the Supplemental Data. […] Protoc. Mol. Chapter. […] Protoc. Mol. Biol. Chapter 29, Unit 29A, 22). […] Plasma GLP-1 levels were measured by ELISA (Millipore) on blood collected by retro-orbital puncture.

[5] = test system: NCI-H716 cells; assay: NCI-H716 cell experiments (ATP, intracellular calcium, GLP-1 release); type: cell-based, human
[6] = test system: primary brown adipocytes; assay: O2 consumption in primary brown adipocytes; type: cell-based, mouse; conditions: treated for 12 hr, 3 μM

Compound: CC[C@H]1[C@@H](O)[C@@H]2[C@H](C[C@H](O)[C@]3(C)[C@@H]([C@H](C)C[C@H](C)C(=O)O)CC[C@@H]23)[C@@]2(C)CC[C@@H](O)C[C@@H]12 [Ih3e, 6α-ethyl-(23S)-methyl-3α,7α,12α trihydroxy-5β-cholan-24-oic acid]
- LXRα Activation EC50 [1]: No activity
- EC50 [2]: > 250 µM
- fasting glucose and insulin levels ([3]; DIO and db/db mice): decreased
- glucose-stimulated insulin secretion profile ([3]; DIO and db/db mice): improvement
- glucose tolerance after an oral challenge with glucose ([3]; DIO and db/db mice, 30 mkd): robustly improved glucose tolerance
- glucose infusion rate required to maintain euglycemia ([3]; DIO mice, hyperinsulinemic euglycemic clamp): virtually identical to that observed in CD-fed control mice
- body weight ([3]; HF-fed C57BL6/J mice, 30 mg/kg/d for 8 weeks): 32.26 ± 0.95 g
- hepatic glucose production, glucose disposal rate, suppression of glucose production by insulin ([3]; HF-fed mice, clamp): normalized these parameters to the values observed in CD-fed mice
- insulin-stimulated 14C-deoxyglucose uptake ([3]; clamp): reduced insulin resistance in liver and muscle
- expression of key genes involved in hepatic glucose homeostasis ([3]; mouse, in vivo): normalization
- expression level of classical target genes of FXR in the liver (CYP7A1, BSEP) ([4]; 30 mg/kg/day): complete absence of changes
- plasma levels ([4]; 30 mg/kg/day admixed with diet): within the range of those of CA and 3-muricholic acid
- increase in liver and fat pad mass ([4]; HF-fed): attenuated
- plasma triglycerides and nonesterified fatty acids (NEFAs) ([4]; HF-fed mice): significant drop
- fat mass ([4]; HF-fed, relative to HF-fed controls): sharp reduction in fat mass
- liver fibrosis ([4]; Sirius red staining): absence of liver fibrosis
- attenuation of body weight gain ([4]; after 10 weeks of treatment, relative to HF-fed controls): about 15%
- plasma levels of liver enzymes ([4]; compared to HF-fed controls): markedly reduced
- respiratory quotient ([4]; dark period): significantly reduced
- energy expenditure (O2 consumption and CO2 production) ([4]; indirect calorimetry): enhanced energy expenditure
- gene expression profiling of BAT ([4]; mouse, in vivo): increase of several mitochondrial genes involved in energy expenditure
- liver steatosis ([4]; oil red O staining, liver lipid content): reduction in liver steatosis
- ATP production ([5]; NCI-H716): increased ATP production in a cAMP-dependent manner
- calcium influx ([5]; NCI-H716): robustly increased calcium influx
- GLP-1 release ([5]; NCI-H716, with glucose): rise in GLP-1 release
- O2 consumption after FCCP [6]: significantly more pronounced
